Here are results for one compound from patent US20260115186A1, “PIPERIDINE UREA DERIVATIVES FOR CANCER THERAPY” (NEUROPN THERAPEUTICS INC., priority 2022, published 2026).

In the data set the test system is adult zebrafish, paclitaxel induced nerve damage. Kind of data set: Paclitaxel-induced peripheral neuropathy in adult zebrafish (tail fin stimulation). Conditions: 3 μL of 10-μM paclitaxel, four consecutive days (Days 2-5), FIG. 9. The class given is in vivo. On the procedure:
Method to evaluate potential of compounds of Formula 1 to reduce or block chemotherapy-induced peripheral neuropathy—Animal (zebrafish) model described below and in literature (Lisse T S et al PNAS 113 (15) E2189-E2198) was used to evaluate potential of compounds of Formula 1 to reduce or block neuronal damage induced by chemotherapeutics.
To induce peripheral neuropathy in adult zebrafish, 3 μL of a 10-μM paclitaxel solution in 0.15% DMSO was administered with a 33 gauge Hamilton Syringe for a zebrafish with average ˜200 mg body weight. Fish were treated with vehicle alone or paclitaxel for four consecutive days (Days 2-5) or paclitaxel with Compound A (10- or 30 ng). Compound A was dosed orally by mixing with the fish feed pellets. Fishes were conditioned to consume three pellets a day. […] To prepare test compound infused pellet, a known quantity of the compound was mixed with the known quantity of the feed powder and were extruded in to 4 mg pellet containing the desired administration dose per pellet. Concentration of test compound dosed per fish were controlled by the number of pellets and the quantity of compound per pellet. […]
To determine the peripheral nerve damage, fish were wrapped in plastic foil until calm, and the distal tail fin was stimulated with an insect pin until twitching of the fish was observed. Number of stimuli until twitch was recorded.

As to `CC(=O)O[C@H]1C(=O)[C@@]2(C)[C@H]([C@H](OC(=O)c3ccccc3)[C@]3(O)C[C@H](OC(=O)[C@H](O)[C@@H](NC(=O)c4ccccc4)c4ccccc4)C(C)=C1C3(C)C)[C@]1(OC(C)=O)CO[C@@H]1C[C@@H]2O` [paclitaxel], the “peripheral nerve damage (number of stimuli until twitch) compared to vehicle alone” value was “significant nerve damage”.
